Experimental data as given in article PMC10661773, “Cytotoxic pathways activated by multifunctional thiosemicarbazones targeting sigma-2 receptors in breast and lung carcinoma cells” (Pharmacological Reports, 2023).

Columns and labels:
Assay type in all cases: cell-based, human
[1] = test system: caspase 9 in A549 cells; assay: Caspase 9 activity, fluorimetric; conditions: A549, 2 h, 50 µM
Experimental: (§1) Activation of caspase 3, caspase 7 and caspase 9 was measured using the Caspase 3/7 Fluorescence Assay kit (Cayman Chemical, Ann Arbor, MI; #10,009,135) and the Caspase 9 fluorimetric assay kit (Enzo Life Science, Roma, Italy; #ALX-850-224). The results were expressed as nmoles of the hydrolyzed substrate of each caspase/mg cellular proteins, according to a previously set titration curve.

[2] = test system: caspase 9 in MCF7 cells; assay: Caspase 9 activity, fluorimetric; conditions: MCF7, 2 h, 50 µM
Experimental: as §1

[3] = test system: GRP78, ATF6, IRE1, PERK in A549 cells; assay: ER stress markers, qRT-PCR and immunoblotting; conditions: A549, 2 h, 50 µM
Experimental: (§2) 1 μg total RNA was reverse-transcribed using the iScript Reverse Transcription Supermix kit (Bio-Rad Laboratories, Hercules, CA; #1,708,840), according to the manufacturer’s instruction. 25 ng cDNA were amplified with 10 μL IQ™ SYBR Green Supermix (Bio-Rad Laboratories, # 1708880B05). Primers were designed with the qPrimer Depot software (http://primerdepot.nci.nih.gov/). qRT-PCR was carried out with a CFX96™ Real-Time Detector System (Bio-Rad Laboratories). Cycling conditions were: 30 s at 95 °C, followed by 40 cycles of denaturation (15 s at 95 °C), annealing/extension (30 s at 60 °C). The same cDNA preparation was used to quantify the genes of interest and the housekeeping gene S14, used to normalize gene expression. The relative quantitation of each sample was carried out using the Gene Expression Quantitation software (Bio-Rad Laboratories). Results were expressed in arbitrary units. For each gene, the expression in untreated cells was assumed to be “1”.
(§3) Cells were rinsed with ice-cold lysis buffer (50 mM, Tris, 10 mM EDTA, 1% v/v Triton-X100), supplemented with the protease inhibitor cocktail set III (80 μM aprotinin, 5 mM bestatin, 1.5 mM leupeptin, 1 mM pepstatin; Sigma, # 535,140), 2 mM phenylmethylsulfonyl fluoride (Sigma: #P7626) and 1 mM Na3VO4, (Sigma; #S6508) then sonicated and centrifuged at 13,000 × g for 10 min at 4 °C. 20 μg protein extracts were subjected to SDS–PAGE and probed with the antibodies for: GRP78 (#ab21685), ATF6 (#ab122897), IRE-1 (#ab37073), PERK (#ab65142), actin (#ab1801) (all from Abcam, Cambridge, UK), followed by a peroxidase-conjugated secondary antibody (Bio-Rad Laboratories). The membranes were washed with Tris-buffered saline-Tween 0.1% v/v solution, and the proteins were detected by enhanced chemiluminescence (Bio-Rad Laboratories, #1,705,061). The densitometric analysis was performed using the ImageJ software (https://imagej.nih.gov/), calculating the ratio protein of interest/actin band density, putting actin band density as 1 relative unit in each condition. Densitometric analysis and whole blots are included as Supporting Information.

[4] = test system: GRP78, ATF6, IRE1, PERK in MCF7 cells; assay: ER stress markers, qRT-PCR and immunoblotting; conditions: MCF7, 2 h, 50 µM
Experimental: as §2, §3

CN(C)C(=S)N/N=C1\C(=O)N(CCCCN2CCC3(CC2)OCc2ccccc23)c2ccccc21 [FA4, (Z)-2-(1-(4-(3H-spiro[isobenzofuran-1,4′-piperidine]-1′-yl)butyl)-2-oxoindolin-3-ylidene)-N,N-dimethylhydrazinecarbothioamide]
Caspase 9 activation [1]: activate | Caspase 9 activation [2]: activate | Rank order of caspase 9 activation [2]: FA4 > MLP44 > PS3 > ACThio1 | Expression of ER stress markers GRP78, ATF6, IRE1, PERK [3]: increased | Expression of ER stress markers GRP78, ATF6, IRE1, PERK [4]: increased
